Experimental data: PubChem BioAssay AID1963429 (Molecular Pharmacology Branch, DTP, NCI, 2024)
Where “and” joins values, the source holds several entries; their conditions need not be identical. Equal entries are not always repeated.

Test system: 126254-015-R-J1-PDC complex spheroid growth, % test/control
Experiment: Anticancer human tumor 126254-015-R-J1-PDC patient-derived soft tissue sarcoma cell line growth inhibition [Asc]
Conditions: for viability, T/C: stronger effect = lower value
Procedure, shortened: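 Stromal components (HUVEC and hMSC) are co-assembled with the cancer cells into multicellular spheroids. Drugs are then added singly or paired, at concentrations falling by half-log increments from a clinically achievable maximum, capped at 10 microM without known Cmax.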

[1] = curve of first compound, second compound 0.1 µM
[2] = curve of first compound, second compound 0.316 µM
[3] = curve of first compound, second compound 1 µM
[4] = second compound 0.1 µM, first compound 0.0316 µM
[5] = second compound 0.1 µM, first compound 0.1 µM
[6] = second compound 0.316 µM, first compound 0.0316 µM
[7] = second compound 0.316 µM, first compound 0.1 µM
[8] = second compound 1 µM, first compound 0.0316 µM
[9] = second compound 1 µM, first compound 0.1 µM
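Note: spheroids exposed to compound for seven days.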
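Throughout, for viability, T/C: 100% = DMSO vehicle control wells.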

Which results are given for `O=C(c1cc(Cc2n[nH]c(=O)c3ccccc23)ccc1F)N1CCN(C(=O)C2CC2)CC1` + CNC(C)C(=O)NC1CN(S(=O)(=O)c2cccc(S(=O)(=O)N3CCC4CCC(C(=O)NC(c5ccccc5)c5ccccc5)N4C(=O)C(NC(=O)C(C)NC)C3)c2)CCC2CCC(C(=O)NC(c3ccccc3)c3ccccc3)N2C1=O?
IC50 (curve of first compound, second compound 0.01 µM): 9050 nM; IC50 (curve of first compound, second compound 0.0316 µM): 6180 nM; IC50 [1]: 2770 nM; IC50 [2]: 3610 nM; IC50 [3]: 1850 nM; viability, T/C (second compound 0.01 µM, first compound 0.0316 µM): 97.3%; viability, T/C (second compound 0.01 µM, first compound 0.1 µM): 89.8%; viability, T/C (second compound 0.01 µM, first compound 0.316 µM): 94.5%; viability, T/C (second compound 0.01 µM, first compound 1 µM): 82.8%; viability, T/C (second compound 0.01 µM, first compound 3.16 µM): 77.6%; viability, T/C (second compound 0.01 µM, first compound 10 µM): 47.1%; viability, T/C (second compound 0.0316 µM, first compound 0.0316 µM): 85.1%; viability, T/C (second compound 0.0316 µM, first compound 0.1 µM): 82.4%; viability, T/C (second compound 0.0316 µM, first compound 0.316 µM): 78.2%; viability, T/C (second compound 0.0316 µM, first compound 1 µM): 80.2%; viability, T/C (second compound 0.0316 µM, first compound 3.16 µM): 55.1%; viability, T/C (second compound 0.0316 µM, first compound 10 µM): 46.3%; viability, T/C [4]: 66.2%; viability, T/C [5]: 77.8%; viability, T/C (second compound 0.1 µM, first compound 0.316 µM): 75.4%; viability, T/C (second compound 0.1 µM, first compound 1 µM): 59.6%; viability, T/C (second compound 0.1 µM, first compound 3.16 µM): 49.8%; viability, T/C (second compound 0.1 µM, first compound 10 µM): 27.4%; viability, T/C [6]: 62.2%; viability, T/C [7]: 56.4%; viability, T/C (second compound 0.316 µM, first compound 0.316 µM): 59.7%; viability, T/C (second compound 0.316 µM, first compound 1 µM): 57.8%; viability, T/C (second compound 0.316 µM, first compound 3.16 µM): 52.9%; viability, T/C (second compound 0.316 µM, first compound 10 µM): 29%; viability, T/C [8]: 54.7%; viability, T/C [9]: 62.2%; viability, T/C (second compound 1 µM, first compound 0.316 µM): 61.4%; viability, T/C (second compound 1 µM, first compound 1 µM): 54.9%; viability, T/C (second compound 1 µM, first compound 3.16 µM): 44.9%; viability, T/C (second compound 1 µM, first compound 10 µM): 22.2%

What does the source list for `Cc1nc(N2CCC3(CC2)COC(C)C3N)c(CO)nc1Sc1ccnc(N)c1Cl` (configuration not stated)?
viability, T/C (compound 0.00949 µM): 94.9% and 93.9% and 98.2%; viability, T/C (compound 0.03 µM): 103% and 83.5% and 93.7%; viability, T/C (compound 0.0949 µM): 86.2% and 84% and 84.9%; viability, T/C (compound 0.3 µM): 84.7% and 73.4% and 69.1%; viability, T/C (compound 0.949 µM): 76.9% and 51.7% and 54.3%; viability, T/C (compound 3 µM): 50.1% and 41.1% and 43.9%; IC50 (curve of compound): > 3000 nM and 1260 nM and 1510 nM

What does the source list for `NC1CCC(NC2CC2c2ccccc2)CC1` (configuration not stated) + CCN1C(C(=O)NC23CCC(C(=O)O)(CC2)CC3)C(c2cccc(Cl)c2F)C2(C(=O)Nc3cc(Cl)ccc32)C12CCCCC2?
IC50 (curve of first compound, second compound 0.03 µM): > 100 nM; IC50 (curve of first compound, second compound 0.0949 µM): > 100 nM; IC50 (curve of first compound, second compound 0.3 µM): > 100 nM; IC50 (curve of first compound, second compound 0.949 µM): > 100 nM; IC50 (curve of first compound, second compound 3 µM): > 100 nM; viability, T/C (second compound 0.03 µM, first compound 0.000316 µM): 94.7%; viability, T/C (second compound 0.03 µM, first compound 0.001 µM): 97.4%; viability, T/C (second compound 0.03 µM, first compound 0.00316 µM): 99.1%; viability, T/C (second compound 0.03 µM, first compound 0.01 µM): 93.1%; viability, T/C (second compound 0.03 µM, first compound 0.0316 µM): 79.7%; viability, T/C (second compound 0.03 µM, first compound 0.1 µM): 83.1%; viability, T/C (second compound 0.0949 µM, first compound 0.000316 µM): 85.6%; viability, T/C (second compound 0.0949 µM, first compound 0.001 µM): 81%; viability, T/C (second compound 0.0949 µM, first compound 0.00316 µM): 93%; viability, T/C (second compound 0.0949 µM, first compound 0.01 µM): 83.5%; viability, T/C (second compound 0.0949 µM, first compound 0.0316 µM): 75.5%; viability, T/C (second compound 0.0949 µM, first compound 0.1 µM): 85.9%; viability, T/C (second compound 0.3 µM, first compound 0.000316 µM): 87.3%; viability, T/C (second compound 0.3 µM, first compound 0.001 µM): 89.4%; viability, T/C (second compound 0.3 µM, first compound 0.00316 µM): 82.7%; viability, T/C (second compound 0.3 µM, first compound 0.01 µM): 79.7%; viability, T/C (second compound 0.3 µM, first compound 0.0316 µM): 78.3%; viability, T/C (second compound 0.3 µM, first compound 0.1 µM): 88.4%; viability, T/C (second compound 0.949 µM, first compound 0.000316 µM): 90.1%; viability, T/C (second compound 0.949 µM, first compound 0.001 µM): 92.3%; viability, T/C (second compound 0.949 µM, first compound 0.00316 µM): 97%; viability, T/C (second compound 0.949 µM, first compound 0.01 µM): 82.5%; viability, T/C (second compound 0.949 µM, first compound 0.0316 µM): 81.5%; viability, T/C (second compound 0.949 µM, first compound 0.1 µM): 83.7%; viability, T/C (second compound 3 µM, first compound 0.000316 µM): 90%; viability, T/C (second compound 3 µM, first compound 0.001 µM): 96.9%; viability, T/C (second compound 3 µM, first compound 0.00316 µM): 78.1%; viability, T/C (second compound 3 µM, first compound 0.01 µM): 74.5%; viability, T/C (second compound 3 µM, first compound 0.0316 µM): 84.1%; viability, T/C (second compound 3 µM, first compound 0.1 µM): 85.2%

Which results are given for `NC1CCC(NC2CC2c2ccccc2)CC1` (configuration not stated) + Cc1c(S(C)(=O)=O)c(-c2cc(F)cc(N3CCN(c4ccc(NS(=O)(=O)c5ccc(NC(CCN6CCC(C(=O)OCCCP(=O)(O)O)CC6)CSc6ccccc6)c(S(=O)(=O)C(F)(F)F)c5)cc4)CC3)c2)c(-c2ccc(Cl)cc2)n1C(C)C?
IC50 [1]: > 100 nM; IC50 [2]: > 100 nM; IC50 [3]: > 100 nM; IC50 (curve of first compound, second compound 3.16 µM): > 100 nM; IC50 (curve of first compound, second compound 10 µM): > 100 nM; viability, T/C (second compound 0.1 µM, first compound 0.000316 µM): 94.6%; viability, T/C (second compound 0.1 µM, first compound 0.001 µM): 88.8%; viability, T/C (second compound 0.1 µM, first compound 0.00316 µM): 76.7%; viability, T/C (second compound 0.1 µM, first compound 0.01 µM): 75.4%; viability, T/C [4]: 84%; viability, T/C [5]: 77.6%; viability, T/C (second compound 0.316 µM, first compound 0.000316 µM): 74.4%; viability, T/C (second compound 0.316 µM, first compound 0.001 µM): 76.5%; viability, T/C (second compound 0.316 µM, first compound 0.00316 µM): 75.3%; viability, T/C (second compound 0.316 µM, first compound 0.01 µM): 70.1%; viability, T/C [6]: 66.5%; viability, T/C [7]: 76.1%; viability, T/C (second compound 1 µM, first compound 0.000316 µM): 79%; viability, T/C (second compound 1 µM, first compound 0.001 µM): 81.2%; viability, T/C (second compound 1 µM, first compound 0.00316 µM): 73.1%; viability, T/C (second compound 1 µM, first compound 0.01 µM): 71.4%; viability, T/C [8]: 73.8%; viability, T/C [9]: 60.3%; viability, T/C (second compound 3.16 µM, first compound 0.000316 µM): 81.5%; viability, T/C (second compound 3.16 µM, first compound 0.001 µM): 73.1%; viability, T/C (second compound 3.16 µM, first compound 0.00316 µM): 73.9%; viability, T/C (second compound 3.16 µM, first compound 0.01 µM): 71.2%; viability, T/C (second compound 3.16 µM, first compound 0.0316 µM): 62.3%; viability, T/C (second compound 3.16 µM, first compound 0.1 µM): 65%; viability, T/C (second compound 10 µM, first compound 0.000316 µM): 69.6%; viability, T/C (second compound 10 µM, first compound 0.001 µM): 69.1%; viability, T/C (second compound 10 µM, first compound 0.00316 µM): 70.4%; viability, T/C (second compound 10 µM, first compound 0.01 µM): 71.3%; viability, T/C (second compound 10 µM, first compound 0.0316 µM): 61.1%; viability, T/C (second compound 10 µM, first compound 0.1 µM): 58.2%
